Test results reported in patent publication US20070072897A1, “Phenylaminopropanol derivatives and methods of their use” (Wyeth, priority 2005, published 2007).
Counter-ions that a name gives are not always drawn.

Target: T1, human hNET (Homo sapiens, UniProt P23975)
T1 construct: expressed in transfected cells; host or cells: MDCK (MDCK-Net6)
Assay: Norepinephrine (NE) uptake assay in MDCK-Net6 cells
Format: cell-based
Conditions: [3H]NE uptake; for EC50: MDCK-Net6 cells stably transfected with hNET; for inhibition at 1 µM: MDCK-Net6 cells, read-out: hNET Percentage inhibition at 1 μM
Description: Cells were plated at 300,000/T75 flask and cells were split twice weekly. […] Cells were plated at 250,000 cells/T75 flask and split twice weekly.
Norepinephrine (NE) Uptake Assay
On day 1, cells were plated at 3,000 cells/well in growth medium and maintained in a cell incubator (37° C., 5% CO2). On day 2, growth medium was replaced with 200 μl of assay buffer (25 mM HEPES; 120 mM NaCl; 5 mM KCl; 2.5 mM CaCl2; 1.2 mM MgSO4; 2 mg/ml glucose (pH 7.4, 37° C.)) containing 0.2 mg/ml ascorbic acid and 10 μM pargyline. Plates containing cells with 200 μl of assay buffer were equilibrated for 10 minutes at 37° C. prior to addition of compounds. A stock solution of desipramine was prepared in DMSO (10 mM) and delivered to triplicate wells containing cells for a final test concentration of 1 μM. Data from these wells were used to define non-specific NE uptake (minimum NE uptake). Test compounds were prepared in DMSO (10 mM) and diluted in assay buffer according to test range (1 to 10,000 nM). Twenty-five microliters of assay buffer (maximum NE uptake) or test compound were added directly to triplicate wells containing cells in 200 μl of assay buffer. The cells in assay buffer with test compounds were incubated for 20 minutes at 37° C. […] The reaction was terminated by decanting the supernatant from the plate. The plates containing cells were washed twice with 200 μl assay buffer (37° C.) to remove free radioligand. The plates were then inverted, left to dry for 2 minutes, then reinverted and air-dried for an additional 10 minutes. […] After cell lysis, 75 μl of scintillation cocktail was added to each well and the plates were sealed with film tape. The plates were returned to the shake table and vigorously shaken for a minimum of 10 minutes to ensure adequate partitioning of organic and aqueous solutions. The plates were counted in a Wallac Microbeta counter (PerkinElmer) to collect the raw cpm data.
For each experiment, a data stream of cpm values collected from the Wallac Microbeta counter was downloaded to a Microsoft Excel statistical application program. Calculations of EC50 values were made using the transformed-both-sides logistic dose response program written by Wyeth Biometrics Department.

T1 sequence (P23975 whole entry): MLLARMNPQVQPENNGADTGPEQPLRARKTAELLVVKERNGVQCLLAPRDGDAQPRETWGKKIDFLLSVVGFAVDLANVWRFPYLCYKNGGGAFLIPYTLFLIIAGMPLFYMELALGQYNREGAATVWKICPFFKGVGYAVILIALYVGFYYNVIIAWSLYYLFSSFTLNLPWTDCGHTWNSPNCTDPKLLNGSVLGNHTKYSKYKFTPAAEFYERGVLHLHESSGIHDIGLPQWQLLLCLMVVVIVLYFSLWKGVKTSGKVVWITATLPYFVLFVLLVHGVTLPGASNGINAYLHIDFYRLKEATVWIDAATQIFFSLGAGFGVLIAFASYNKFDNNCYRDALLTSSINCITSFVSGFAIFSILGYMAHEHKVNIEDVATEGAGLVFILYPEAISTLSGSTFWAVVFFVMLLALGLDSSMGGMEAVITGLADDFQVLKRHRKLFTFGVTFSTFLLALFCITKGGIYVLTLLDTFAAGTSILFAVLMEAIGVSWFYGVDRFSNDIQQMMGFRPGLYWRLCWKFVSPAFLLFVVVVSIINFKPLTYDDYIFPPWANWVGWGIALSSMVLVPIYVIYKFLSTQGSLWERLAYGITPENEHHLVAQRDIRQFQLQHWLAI

EC50 [nM]	inhibition at 1 µM [%]	SMILES
327	–	CNC[C@@H](O)[C@H](c1cccc(F)c1)n1cc(-c2ccccc2OC(F)(F)F)c2ccccc21 [Example 34, (1S,2R)-1-(3-fluorophenyl)-3-(methylamino)-1-{3-[2-(trifluoromethoxy)phenyl]-1H-indol-1-yl}propan-2-ol hydrochloride]
169	–	CNC[C@@H](O)[C@H](c1cccc(F)c1)n1cc(-c2ccccc2OC(C)C)c2ccccc21 [Example 35, (1S,2R)-1-(3-fluorophenyl)-3-(methylamino)-1-{3-[2-(isopropoxy)phenyl]-1H-indol-1-yl}propan-2-ol hydrochloride]
711	–	CNC[C@@H](O)[C@H](c1cccc(F)c1)n1cc(-c2ccc(F)cc2)c2ccccc21 [Example 36, (1S,2R)-1-(3-fluorophenyl)-1-[3-(4-fluorophenyl)-1H-indol-1-yl]-3-(methylamino)propan-2-ol hydrochloride]
–	26	CNC[C@@H](O)[C@H](c1cccc(F)c1)n1cc(-c2ccccc2Oc2ccccc2)c2ccccc21 [Example 37, (1S,2R)-1-(3-fluorophenyl)-3-(methylamino)-1-[3-(2-phenoxyphenyl)-1H-indol-1-yl]propan-2-ol hydrochloride]
135	–	CNC[C@@H](O)[C@H](c1cccc(F)c1)n1cc(-c2ccc(F)cc2F)c2ccccc21 [Example 38, (1S,2R)-1-[3-(2,4-difluorophenyl)-1H-indol-1-yl]-1-(3-fluorophenyl)-3-(methylamino)propan-2-ol hydrochloride]
70	–	CNC[C@@H](O)[C@H](c1cccc(F)c1)n1cc(-c2cc(F)ccc2F)c2ccccc21 [Example 39, (1S,2R)-1-[3-(2,5-difluorophenyl)-1H-indol-1-yl]-1-(3-fluorophenyl)-3-(methylamino)propan-2-ol hydrochloride]
41	–	CNC[C@@H](O)[C@H](c1cccc(F)c1)n1cc(-c2cccc(OC)c2OC)c2ccccc21 [Example 40, (1S,2R)-1-[3-(2,3-dimethoxyphenyl)-1H-indol-1-yl]-1-(3-fluorophenyl)-3-(methylamino)propan-2-ol hydrochloride]
193	–	CNC[C@@H](O)[C@H](c1cccc(F)c1)n1cc(-c2ccc(Cl)cc2Cl)c2ccccc21 [Example 41, (1S,2R)-1-[3-(2,4-dichlorophenyl)-1H-indol-1-yl]-1-(3-fluorophenyl)-3-(methylamino)propan-2-ol hydrochloride]
71	–	CCOc1ccccc1-c1cn([C@@H](c2cccc(F)c2)[C@H](O)CNC)c2ccccc12 [Example 42, (1S,2R)-1-[3-(2-ethoxyphenyl)-1H-indol-1-yl]-1-(3-fluorophenyl)-3-(methylamino)propan-2-ol hydrochloride]
299	–	CNC[C@@H](O)[C@H](c1cccc(F)c1)n1ccc2cc(OC)nc(Cl)c21 [Example 43, (1S,2R)-1-(7-chloro-5-methoxy-1H-pyrrolo[2,3-c]pyridin-1-yl)-1-(3-fluorophenyl)-3-(methylamino)propan-2-ol hydrochloride]
416	–	CNC[C@@H](O)[C@H](c1ccccc1)n1ccc2cc(C)nc(Cl)c21 [Example 44, (1S,2R)-1-(7-chloro-5-methyl-1H-pyrrolo[2,3-c]pyridin-1-yl)-3-(methylamino)-1-phenylpropan-2-ol hydrochloride]
–	43	CNC[C@@H](O)[C@H](c1ccccc1)n1ccc2cc(OC)ncc21 [Example 45, (1S,2R)-1-(5-methoxy-1H-pyrrolo[2,3-c]pyridin-1-yl)-3-(methylamino)-1-phenylpropan-2-ol hydrochloride]
–	46	CNC[C@@H](O)[C@H](c1cccc(F)c1)n1ccc2cc(OC)ncc21 [Example 46, (1S,2R)-1-(3-fluorophenyl)-1-(5-methoxy-1H-pyrrolo[2,3-c]pyridin-1-yl)-3-(methylamino)propan-2-ol hydrochloride]
–	35	CNC[C@@H](O)[C@H](c1ccccc1)n1ccc2cc(C)ncc21 [Example 47, (1S,2R)-3-(methylamino)-1-(5-methyl-1H-pyrrolo[2.3-c]pyridin-1-yl)-1-phenylpropan-2-ol hydrochloride]
–	51	CNC[C@@H](O)[C@H](c1cccc(F)c1)n1ccc2cc(C)ncc21 [Example 48, (1S,2R)-1-(3-fluorophenyl)-3-(methylamino)-1-(5-methyl-1H-pyrrolo[2,3-c]pyridin-1-yl)propan-2-ol hydrochloride]
–	51	CNC[C@@H](O)[C@H](c1ccccc1)n1ccc2ccnc(C)c21 [Example 49, (1S,2R)-3-(methylamino)-1-(7-methyl-1H-pyrrolo[2,3-c]pyridin-1-yl)-1-phenylpropan-2-ol hydrochloride]
521	–	CNC[C@@H](O)[C@H](c1cccc(F)c1)n1ccc2ccnc(C)c21 [Example 50, (1S,2R)-1-(3-fluorophenyl)-3-(methylamino)-1-(7-methyl-1H-pyrrolo[2,3-c]pyridin-1-yl)propan-2-ol hydrochloride]
–	49	CNC[C@@H](O)[C@H](c1cccc(F)c1)N1CCN(Cc2ccccc2)c2ccccc21 [Example 53, (1S,2R)-1-(4-benzyl-3,4-dihydroquinoxalin-1(2H)-yl)-1-(3-fluorophenyl)-3-(methylamino)propan-2-ol hydrochloride]
16	–	CCC1CN([C@@H](c2ccccc2)[C@H](O)CNC)c2ccccc21 (stereo partly drawn) [Example 59, (1S,2R)-1-(3-ethyl-2,3-dihydro-1H-indol-1-yl)-3-(methylamino)-1-phenylpropan-2-ol hydrochloride]
67	–	CNC[C@@H](O)[C@H](c1ccccc1)N1CC(C(C)C)c2ccccc21 (stereo partly drawn) [Example 60, (1S,2R)-1-(3-isopropyl-2,3-dihydro-1H-indol-1-yl)-3-(methylamino)-1-phenylpropan-2-ol hydrochloride]
216	–	CC1(C)CN([C@@H](c2cc(F)cc(F)c2)[C@H](O)CN)c2ccccc21 [Example 61, (1S,2R)-3-amino-1-(3,5-difluorophenyl)-1-(3,3-dimethyl-2,3-dihydro-1H-indol-1-yl)propan-2-ol hydrochloride]
4	–	CNC[C@@H](O)[C@H](c1cc(F)cc(F)c1)N1C(=O)C(C)(C)c2cccc(F)c21 [Example 62, 1-[(1S,2R)-1-(3,5-difluorophenyl)-2-hydroxy-3-(methylamino)propyl]-7-fluoro-3,3-dimethyl-1,3-dihydro-2H-indol-2-one hydrochloride]
51	–	CNC[C@@H](O)[C@H](c1cccc(F)c1)N1C(=O)C(C)(C)c2cc(F)cc(F)c21 [Example 63, 5,7-difluoro-1-[(1S,2R)-1-(3-fluorophenyl)-2-hydroxy-3-(methylamino)propyl]-3,3-dimethyl-1,3-dihydro-2H-indol-2-one hydrochloride]
20	–	CNC[C@@H](O)[C@H](c1cc(F)cc(F)c1)N1C(=O)C(C)(C)c2ccccc21 [Example 64, 1-[(1S,2R)-1-(3,5-difluorophenyl)-2-hydroxy-3-(methylamino)propyl]-3,3-dimethyl-1,3-dihydro-2H-indol-2-one hydrochloride]
55	–	CNC[C@@H](O)[C@H](c1ccccc1)n1ccc2cc(O)ccc21 [Example 65, 1-[(1S,2R)-2-hydroxy-3-(methylamino)-1-phenylpropyl]-1H-indol-5-ol hydrochloride]
3	–	CNC[C@@H](O)[C@H](c1cccc(F)c1)n1ccc2cc(O)ccc21 [Example 66, 1-[(1S,2R)-1-(3-fluorophenyl)-2-hydroxy-3-(methylamino)propyl]-1H-indol-5-ol hydrochloride]
839	–	CNC[C@@H](O)[C@H](c1ccccc1)N1C(=O)C2(CCCCC2)c2cc(OCc3ccccc3)ccc21 [Example 67, 5′-(benzyloxy)-1′-[(1S,2R)-2-hydroxy-3-(methylamino)-1-phenylpropyl]spiro[cyclohexane-1,3′-indol]-2′(1′H)-one hydrochloride]
240	–	CNC[C@@H](O)[C@H](c1ccccc1)N1C(=O)C(C)(C)c2cc(OCc3ccccc3)ccc21 [Example 68, 5-benzyloxy-1-[(1S,2R)-2-hydroxy-3-(methylamino)-1-phenylpropyl]-3,3-dimethyl-1,3-dihydro-2H-indol-2-one hydrochloride]
92	–	CNC[C@@H](O)[C@H](c1cccc(Cl)c1)N1C(=O)C(C)(C)c2cccc(F)c21 [Example 69, 1-[(1S,2R)-1-(3-chlorophenyl)-2-hydroxy-3-(methylamino)propyl]-7-fluoro-3,3-dimethyl-1,3-dihydro-2H-indol-2-one hydrochloride]
